Laboratory results as given in patent publication EP4385508A1, “FURAN FATTY ACIDS FOR ENHANCING MUSCLE MASS” (Centre de Coopération Internationale en Recherche …, priority 2022, dated 2024).

How the values were obtained:
myosin heavy chains = experiment: Myosin heavy chain gene expression in quadriceps of supplemented C57Bl6 mice; assay type: in vivo; conditions: 20mg/kg oral gavage
Procedure: Male C57Bl/6J wild-type mice were obtained from Janvier at 12 weeks of age and were randomly assigned to one of the two groups based on body weight. Mice were housed 2 per cage and maintained on a 12-hour light/dark cycle (lights on at 7:30 pm). Food and water were provided ad libitum. Enrichment (nesting cotton squares) was provided in each cage. Mice were treated once daily by oral gavage with vehicle (50% PEG-400, 0.5% Tween 80, and 49.5% distilled water) or FuFA-F2 (20 mg/kg). All animal experiments were performed according to European directives (86/609/CEE and 2010/63/CEE) and approved by the regional animal experimentation ethics committe: Région Languedoc-Roussillon (No36). Our institutional guidelines for the care and use of laboratory animals were observed. […]
The PCR overall efficiency (E) was calculated from the slopes of the standard curves according to the equation E = [10^(-1/slope)] - 1, and this value was higher than 95% for all assays. The relative abundance of each sample was then normalized according to the equation: relative quantity = 2^- […]Ct. All of the experiments were performed according to the minimum information for publication of quantitative real-time PCR experiment (MIQE) guidelines (Bustin et al., 2009, Clin Chem, Vol. 55(4) : 611-622; Schmittgen et al., 2008, Net Protoc, Vol. 3(6) : 1101-1108). […]

C2C12 myotubes = experiment: Total protein content (protein accretion) in C2C12 myotubes; assay type: cell-based, Mouse; conditions: whatever the dose (1, 10, 50 µM), 3 days of supplementation, vs control
Procedure: (§1) Mouse myoblasts of the C2C12 cell line (ATCC) were seeded at a plating density of 7000 cells/cm2 in 6-well plates. They were grown in DMEM high glucose (4.5g/l) supplemented with gentamycin (50 µg/mL), amphotericin (50 µg/mL), and fetal calf serum (10%). Terminal differentiation was induced at cell confluence by lowering the medium serum concentration (0.5%).
(§2) When indicated, FuFA-F2 was added to the culture medium at the indicated concentration. For the differentiation studies, FuFA-F2 was added at the confluence at the same time as the change in media condition. Three doses of FuFA-F2 were studied at a final concentration of 1, 10, or 50 µM. Human insulin was used at a concentration of 100 nM.
Protein levels were assessed by Western blotting. Total proteins were measured using the Bio-Rad protein assay (Hercules, CA, USA) according to the manufacturer's instructions. Total proteins were lysed in RIPA buffer (20mM Tris, 150mM NaCl, 1mM EDTA, 1% NP40, pH 7.5 + complete cocktail protease inhibitors + Pierce phosphatase inhibitors tablet). 40 µg of cell extracts were loaded and blotted onto a nitrocellulose membrane. The membranes were washed, blocked with 5% nonfat milk and incubated in primary antibody overnight at 4°C. […]

ULK1 = ULK1 phosphorylation and total level by Western blot in C2C12 myotubes; assay type: cell-based, Mouse; conditions: highest dose (50 µM)
Procedure: as §1, §2
Protein levels were assessed by Western blotting. Total proteins were measured using the Bio-Rad protein assay (Hercules, CA, USA) according to the manufacturer's instructions. […]
AMP activated protein kinase (AMPK) is a crucial cellular energy sensor protein and is activated when intracellular ATP level decreases to regulate autophagy initiation (Hardie et al., 2012, Nat Rev Mol Cell Bio, Vol. 13 (4) : 251-262). […] The autophagy-related signaling was further evaluated by measuring the MTORC1 mediated phosphorylation […] at Ser757 which disrupts the interaction between ULK1 and AMPK. […] Therefore, the autophagic flux was assessed by measuring the conversion of LC3-I to LC3-II, through lipidation.

In the case of `CCCCCc1cc(C)c(CCCCCCCCC(=O)O)o1` [FuFA-F2], the “MyHCIIa expression at the expense of MyHCIIb” value (myosin heavy chains) was “trend towards an increase”, the “expression of the different myosin heavy chains” value (myosin heavy chains; treated vs not treated) was “did not indicate any significant difference” and the “total protein content in C2C12 myotubes” value (C2C12 myotubes) was “significantly increase”. The “ULK1 phosphorylation at Ser757” value (ULK1) was “decreased” and the “total Ulk level” value (ULK1) was “also decreased”.
